Measurements reported in US8252737B2, “Antimicrobial peptides and methods of use” (priority 2004, dated 2012).
≈ marks a conversion by molar mass, not a printed value. Read-outs that look alike come from different tables or passages of the source.

Columns and labels:
[1] = RP-HPLC temperature profiling (hydrophobicity and self-association/dimerization parameter PA); format: physicochemical; settings: for tR (min) 5° C.: RP-HPLC retention time at 5° C. during temperature profiling (measure of hydrophobicity); for tR (min) 80° C.: RP-HPLC retention time at 80° C. during temperature profiling; for Hydrophobicity tR5: RP-HPLC retention time at pH 2, 5° C.; for Hydrophobicity tR80: RP-HPLC retention time at pH 2, 80° C.; for tR (min) Max: maximal RP-HPLC retention time during temperature profiling 5-80° C.; for PA (min) association parameter: maximal retention time difference relative to control peptide C within 5-80° C.; for PA (dimerization / self-association parameter): maximal retention time difference relative to control peptide C, 5-80° C.; for ΔtR (X-NVL) (min) 5° C.: retention time difference relative to native peptide V681 (NVL) at 5° C.; for ΔtR (X-NVL) (min) 80° C.: retention time difference relative to native peptide V681 (NVL) at 80° C.
Procedure, shortened: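 RP-HPLC retention times recorded over temperature profiling from 5°C to 80°C, with retention relative to native V681 at each limit used as hydrophobicity. Self-association parameter PA defined as the maximal change in retention time from 5°C, after subtracting that of monomeric random-coil control peptide C.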

[2] = system: Pseudomonas aeruginosa strains; settings: for Antimicrobial activity Fold: fold improvement in geometric mean MIC compared to V681; for MIC GM: geometric mean of six Pseudomonas aeruginosa clinical isolates; for MIC CP 204: strain CP 204; for MIC M 2: strain M 2; for MIC PA 14: strain PA 14; for MIC PAK: strain PAK; for MIC PAO 1: strain PAO 1; for MIC WR 5: strain WR 5
gram-negative bacteria = assay: MIC, microtiter dilution, Gram-negative bacteria (geometric mean of 6 strains); format: cell-based; settings: for MIC (μg/ml) GM: geometric mean of MIC values from all 6 Gram-negative strains of Table 11
Procedure, shortened: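 Microtiter broth dilution in LB no-salt or Mueller-Hinton broth (brain heart infusion for P. aeruginosa clinical isolates, inoculum 1×10^6 CFU/ml); overnight 37° C. cultures diluted, plates incubated 37° C. 24 h. MIC is lowest peptide concentration inhibiting growth; value is geometric mean over 6 strains.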

[3] = system: E. coli (UB 1005 wt and DC2 abs); settings: for MIC (μg/ml) E. coli C500 abs: antibiotic sensitive strain; for MIC (μg/ml) E. coli C498 wt: wild-type lab strain
C. albicans = settings: fungus
Procedure, shortened: (§1)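 Microtiter dilution in LB no-salt or Mueller-Hinton medium, with BHI for Pseudomonas aeruginosa clinical isolates (final inoculum 1×10^6 CFU/ml). Plates were incubated 24 hours at 37° C. MIC was the lowest peptide concentration inhibiting growth.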

E. faecalis = system: E. faecalis
Procedure, shortened: as §1

[4] = non-polar face substitutions, relative hydrophobicity

Compound	tR (min) 5° C. [1] [min]	tR (min) 80° C. [1] [min]	Hydrophobicity tR5 [1] [min]	Hydrophobicity tR80 [1] [min]	tR (min) Max [1] [min]	PA (min) association parameter [1] [min]	PA (dimerization / self-association parameter) [1]	ΔtR (X-NVL) (min) 5° C. [1, 4] [min]	ΔtR (X-NVL) (min) 80° C. [1, 4] [min]	Antimicrobial activity Fold [2]	MIC GM [2] [µg/mL]	MIC CP 204 [2] [µg/mL]	MIC M 2 [2] [µg/mL]	MIC PA 14 [2] [µg/mL]	MIC PAK [2] [µg/mL]	MIC PAO 1 [2] [µg/mL]	MIC WR 5 [2] [µg/mL]	MIC (μg/ml) GM (gram-negative bacteria) [µg/mL]	MIC (μg/ml) E. coli C500 abs [3] [µg/mL]	MIC (μg/ml) E. coli C498 wt [3] [µg/mL]	other results
CC[C@H](C)[C@H](NC(=O)[C@H](C)NC(=O)[C@H](CCCCN)NC(=O)[C@H](CC(C)C)NC(=O)[C@H](C)NC(=O)[C@@H](NC(=O)[C@H](Cc1cnc[nH]1)NC(=O)[C@H](CC(C)C)NC(=O)[C@@H](NC(=O)[C@@H](NC(=O)[C@H](CCCCN)NC(=O)[C@H](CCCCN)NC(=O)[C@H](C)NC(=O)[C@H](CO)NC(=O)[C@H](CCCCN)NC(=O)[C@H](Cc1ccccc1)NC(=O)[C@@H](NC(=O)[C@H](CCCCN)NC(=O)[C@H](CC(C)C)NC(=O)[C@H](Cc1ccccc1)NC(=O)[C@H](CO)NC(=O)[C@H](CCCCN)NC(=O)[C@H](Cc1c[nH]c2ccccc12)NC(=O)[C@H](CCCCN)NC(C)=O)[C@@H](C)O)[C@@H](C)O)C(C)C)[C@@H](C)O)C(=O)N[C@@H](CO)C(=O)N[C@@H](CO)C(N)=O [NKL]	36.85	33.22	74.9	64.7	36.91	1.10	2.1	-11.25	-12.61	0.6	49.6 (≈ 16.6 µM)	7.8 (≈ 2.61 µM)	31.3 (≈ 10.5 µM)	62.5 (≈ 20.9 µM)	125.0 (≈ 41.8 µM)	31.3 (≈ 10.5 µM)	250.0 (≈ 83.6 µM)	3.9 (≈ 1.3 µM)	3.1 (≈ 1.04 µM)	3.1 (≈ 1.04 µM)	decrease in hydrophobicity relative to NVL (V681) ([1]; RP-HPLC retention time difference at 80° C., non-polar face substitutions): -12.61 min; MIC (μg/ml) CP 204 ([2]; Pseudomonas aeruginosa clinical isolate CP 204): 7.8 µg/mL (≈ 2.61 µM); MIC (μg/ml) M 2 ([2]; Pseudomonas aeruginosa clinical isolate M 2): 31.3 µg/mL (≈ 10.5 µM); MIC (μg/ml) PA 14 ([2]; Pseudomonas aeruginosa clinical isolate PA 14): 62.5 µg/mL (≈ 20.9 µM); MIC (μg/ml) PAK ([2]; Pseudomonas aeruginosa clinical isolate PAK): 125.0 µg/mL (≈ 41.8 µM); MIC (μg/ml) PAO 1 ([2]; Pseudomonas aeruginosa clinical isolate PAO 1): 31.3 µg/mL (≈ 10.5 µM); MIC (μg/ml) WR 5 ([2]; Pseudomonas aeruginosa clinical isolate WR 5): 250.0 µg/mL (≈ 83.6 µM); MIC (μg/ml) GM ([2]; geometric mean of the MIC values for the 6 Pseudomonas aeruginosa clinical isolates): 49.6 µg/mL (≈ 16.6 µM); geometric mean MIC against Gram-negative bacteria (gram-negative bacteria; 6 strains of Table 7): 3.1 µg/mL; fold improvement on the average MIC compared to V681 (gram-negative bacteria; gram-negative bacteria, geometric mean comparison, Table 7): 2.8; MIC (μg/ml) St C587 wt (Salmonella typhimurium wild-type lab strain): 6.3 µg/mL (≈ 2.11 µM); MIC (μg/ml) Pa H188 abs (P. aeruginosa H187 wt; Pseudomonas aeruginosa antibiotic sensitive strain): 3.1 µg/mL (≈ 1.04 µM); MIC (μg/ml) Pa H187 wt (P. aeruginosa H187 wt; Pseudomonas aeruginosa wild-type lab strain): 6.3 µg/mL (≈ 2.11 µM); MIC (μg/ml) St C610 abs (S. typhimurium C610 abs; Salmonella typhimurium antibiotic sensitive strain): 3.1 µg/mL (≈ 1.04 µM); MIC (μg/ml) C. albicans (C. albicans): 50.0 µg/mL (≈ 16.7 µM); MIC (μg/ml) E. faecalis C625 wt (E. faecalis; wild type strain): 50.0 µg/mL (≈ 16.7 µM)
CC[C@H](C)[C@H](NC(=O)[C@H](C)NC(=O)[C@H](CCCCN)NC(=O)[C@H](CC(C)C)NC(=O)[C@H](C)NC(=O)[C@@H](NC(=O)[C@H](Cc1c[nH]cn1)NC(=O)[C@H](CC(C)C)NC(=O)[C@@H](NC(=O)[C@@H](NC(=O)[C@H](CCCCN)NC(=O)[C@@H](NC(=O)[C@H](C)NC(=O)[C@H](CO)NC(=O)[C@H](CCCCN)NC(=O)[C@H](Cc1ccccc1)NC(=O)[C@@H](NC(=O)[C@H](CCCCN)NC(=O)[C@H](CC(C)C)NC(=O)[C@H](Cc1ccccc1)NC(=O)[C@H](CO)NC(=O)[C@H](CCCCN)NC(=O)[C@H](Cc1c[nH]c2ccccc12)NC(=O)[C@H](CCCCN)NC(C)=O)[C@@H](C)O)C(C)C)[C@@H](C)O)C(C)C)[C@@H](C)O)C(=O)N[C@@H](CO)C(=O)N[C@@H](CO)C(N)=O [Peptide V681, reference compound]	48.10	45.83	96.6	88.8	49.99	3.63	7.2	0	0	1.0	27.8 (≈ 9.39 µM)	15.6 (≈ 5.27 µM)	15.6 (≈ 5.27 µM)	62.5 (≈ 21.1 µM)	31.3 (≈ 10.6 µM)	15.6 (≈ 5.27 µM)	62.5 (≈ 21.1 µM)	5.0 (≈ 1.69 µM)	3.1 (≈ 1.05 µM)	6.3 (≈ 2.13 µM)	overall hydrophobicity change relative to PVL ([1]; RP-HPLC retention time difference at 80° C., polar face substitutions): -0.35 min; ΔtR (X-PSL) (min) 5° C. ([1]; polar face substitutions, retention time difference relative to native peptide V681 (PSL) at 5° C., relative hydrophobicity): 0 min; ΔtR (X-PSL) (min) 80° C. ([1]; polar face substitutions, retention time difference relative to native peptide V681 (PSL) at 80° C., relative hydrophobicity): 0 min; MIC (μg/ml) Gram-negative (gram-negative bacteria; geometric mean MIC, Table 9): 8.8 µg/mL (≈ 2.97 µM); MIC (μg/ml) St C587 wt (C610 abs): 12.5 µg/mL (≈ 4.22 µM); MIC (μg/ml) Pa H188 abs (P. aeruginosa H187 wt): 3.1 µg/mL (≈ 1.05 µM); MIC (μg/ml) Pa H187 wt (P. aeruginosa H187 wt; H187 wt): 6.3 µg/mL (≈ 2.13 µM); MIC (μg/ml) St C610 abs (S. typhimurium C610 abs; C610 abs): 3.1 µg/mL (≈ 1.05 µM); MIC (μg/ml) C. albicans (C. albicans): 12.5 µg/mL (≈ 4.22 µM); MIC (μg/ml) E. faecalis C625 wt (E. faecalis): 6.3 µg/mL (≈ 2.13 µM)
